Laboratory results reported in PubChem BioAssay (NCI).
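Where inhibition never reached the appropriate level, the endpoint shown equals the highest concentration tested. Otherwise, values were interpolated linearly from a five-concentration, 48-hour dose response in 96-well plates. GI50 = concentration required for 50% inhibition of growth. Definition used: TGI = concentration required for complete inhibition of growth.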

How the values were obtained:
Assay in all cases: NCI-60 cell line screen, 48 h
[1] = system: CCRF-CEM leukemia
[2] = system: SF-295 CNS
[3] = system: NCI-H522 lung
[4] = system: MDA-MB-231 breast
[5] = system: NCI-H23 lung
[6] = system: SK-OV-3 ovarian
[7] = system: DU-145 prostate
[8] = system: OVCAR-4 ovarian
[9] = system: SK-MEL-28 melanoma
[10] = system: SW-620 colon
[11] = system: HCT-15 colon
[12] = system: A549 NSCLC
[13] = system: SF-539 CNS
[14] = system: IGROV1 ovarian
[15] = system: U251 CNS
[16] = system: BT-549 breast
[17] = system: HCC-2998 colon
[18] = system: HL-60(TB) leukemia
[19] = system: MCF7 breast
[20] = system: TK-10 renal
[21] = system: SN12C renal
[22] = system: MDA-MB-435
[23] = system: HS 578T breast
[24] = system: 786-0 renal
[25] = system: HCT-116 colon
[26] = system: M14 melanoma
[27] = system: K-562 leukemia
[28] = system: SF-268 CNS
[29] = system: HOP-92 NSCLC
[30] = system: OVCAR-5 ovarian
[31] = system: NCI/ADR-RES ovarian
[32] = system: COLO 205 colon
[33] = system: SK-MEL-5 melanoma
[34] = system: UACC-62 melanoma
[35] = system: SK-MEL-2 melanoma
[36] = system: LOX IMVI melanoma
[37] = system: SR leukemia
[38] = system: HT29 colon
[39] = system: KM12 colon
[40] = system: NCI-H460 lung
[41] = system: UACC-257 melanoma
[42] = system: OVCAR-8 ovarian
[43] = system: NCI-H226 lung
[44] = system: PC-3 prostate
[45] = system: UO-31 renal
[46] = system: CAKI-1 renal
[47] = system: EKVX NSCLC
[48] = system: OVCAR-3 ovarian
[49] = system: RPMI-8226 leukemia
[50] = system: MOLT-4 leukemia
[51] = system: A498 renal
[52] = system: MALME-3M melanoma
[53] = system: ACHN renal
[54] = system: HOP-62 NSCLC
[55] = system: SNB-19 CNS
[56] = system: RXF 393 renal
[57] = system: SNB-75 CNS

Structure (SMILES): c1ccc2c(c1)nc1n2sc2nc3ccccc3n21
- TGI [1]: > 100 µM
- TGI [2]: > 100 µM
- TGI [3]: > 100 µM
- TGI [4]: > 100000 nM
- TGI [5]: > 100 µM
- TGI [6]: > 100 µM
- TGI [7]: > 100 µM
- TGI [8]: > 100 µM
- TGI [9]: > 100 µM
- TGI [10]: > 100 µM
- TGI [11]: > 100000 nM
- TGI [12]: > 100 µM
- TGI [13]: > 100 µM
- TGI [14]: > 100 µM
- TGI [15]: > 100 µM
- TGI [16]: > 100 µM
- TGI [17]: > 100 µM
- TGI [18]: > 100 µM
- TGI [19]: > 100 µM
- TGI [20]: > 100 µM
- TGI [21]: > 100 µM
- TGI [22]: > 100 µM
- TGI [23]: > 100 µM
- TGI [24]: > 100000 nM
- TGI [25]: > 100 µM
- TGI [26]: > 100 µM
- TGI [27]: > 100 µM
- TGI [28]: > 100 µM
- TGI [29]: > 100000 nM
- TGI [30]: > 100 µM
- TGI [31]: > 100 µM
- TGI [32]: > 100 µM
- TGI [33]: > 100 µM
- TGI [34]: 79 µM
- TGI [35]: > 100 µM
- TGI [36]: > 100 µM
- TGI [37]: > 100 µM
- TGI [38]: > 100 µM
- TGI [39]: > 100 µM
- TGI [40]: > 100000 nM
- TGI [41]: > 100 µM
- TGI [42]: > 100 µM
- TGI [43]: > 100 µM
- TGI [44]: > 100 µM
- TGI [45]: > 100000 nM
- TGI [46]: > 100000 nM
- TGI [47]: > 100000 nM
- TGI [48]: > 100 µM
- TGI [49]: > 100 µM
- TGI [50]: > 100 µM

Structure (SMILES): O=c1c2cc(F)ccc2sc2c(N3CCNCC3)nc3ccccc3c12
- GI50 [2]: 1750 nM
- TGI [2]: 3.17 µM
- GI50 [3]: 1860 nM
- TGI [3]: 3.72 µM
- GI50 [51]: 1440 nM
- TGI [51]: 2910 nM
- GI50 [4]: 1390 nM
- TGI [4]: 2780 nM
- GI50 [5]: 1780 nM
- TGI [5]: 3.27 µM
- GI50 [7]: 1690 nM
- TGI [7]: 3.12 µM
- GI50 [8]: 1740 nM
- TGI [8]: 3.46 µM
- GI50 [9]: 1750 nM
- TGI [9]: 3.17 µM
- GI50 [10]: 1510 nM
- TGI [10]: 3.01 µM
- GI50 [52]: 1640 nM
- TGI [52]: 3.22 µM
- GI50 [11]: 1410 nM
- TGI [11]: 2850 nM
- GI50 [12]: 1650 nM
- TGI [12]: 3.54 µM
- GI50 [13]: 1630 nM
- TGI [13]: 3.05 µM
- GI50 [14]: 1500 nM
- TGI [14]: 3.02 µM
- GI50 [15]: 1570 nM
- TGI [15]: 3.42 µM
- GI50 [16]: 7.76 µM
- TGI [16]: 20.9 µM
- GI50 [17]: 1650 nM
- TGI [17]: 3.05 µM
- GI50 [18]: 1900 nM
- TGI [18]: 3.72 µM
- GI50 [19]: 1700 nM
- TGI [19]: 3.27 µM
- GI50 [20]: 1690 nM
- TGI [20]: 3.24 µM
- GI50 [21]: 1590 nM
- TGI [21]: 3.04 µM
- GI50 [22]: 1650 nM
- TGI [22]: 3.05 µM
- GI50 [23]: 1530 nM
- TGI [23]: 3.31 µM
- GI50 [24]: 1450 nM
- TGI [24]: 2930 nM
- GI50 [53]: 1560 nM
- TGI [53]: 2890 nM
- GI50 [25]: 1590 nM
- TGI [25]: 3.01 µM
- GI50 [26]: 1780 nM
- TGI [26]: 3.27 µM
- GI50 [28]: 1550 nM
- TGI [28]: 3.18 µM
- GI50 [29]: 867 nM
- TGI [29]: 2220 nM
- GI50 [30]: 1670 nM
- TGI [30]: 3.08 µM
- GI50 [54]: 1610 nM
- TGI [54]: 3.44 µM
- GI50 [31]: 1690 nM
- TGI [31]: 3.22 µM
- GI50 [32]: 1750 nM
- TGI [32]: 4.03 µM
- GI50 [55]: 1610 nM
- TGI [55]: 3.04 µM
- GI50 [33]: 1760 nM
- TGI [33]: 3.18 µM
- GI50 [34]: 1690 nM
- TGI [34]: 3.09 µM
- GI50 [56]: 1290 nM
- TGI [56]: 2650 nM
- GI50 [35]: 2010 nM
- TGI [35]: 4 µM
- GI50 [36]: 1590 nM
- TGI [36]: 3.02 µM
- GI50 [37]: 1540 nM
- TGI [37]: 4.14 µM
- GI50 [38]: 1640 nM
- TGI [38]: 3.35 µM
- GI50 [57]: 1430 nM
- TGI [57]: 2800 nM
- GI50 [39]: 1720 nM
- TGI [39]: 3.34 µM
- GI50 [40]: 1490 nM
- TGI [40]: 2990 nM
- GI50 [41]: 1990 nM
- TGI [41]: 3.87 µM
- GI50 [42]: 1820 nM
- TGI [42]: 4.08 µM
- GI50 [43]: 1820 nM
- TGI [43]: 3.48 µM
- GI50 [44]: 1610 nM
- TGI [44]: 3.1 µM
- GI50 [45]: 1370 nM
- TGI [45]: 2710 nM
- GI50 [46]: 1590 nM
- TGI [46]: 2930 nM
- GI50 [47]: 1550 nM
- TGI [47]: 2980 nM
- GI50 [48]: 1660 nM
- TGI [48]: 3.09 µM
- GI50 [49]: 1770 nM
- TGI [49]: 3.77 µM
- GI50 [50]: 1700 nM
- TGI [50]: 3.56 µM
